Test results: the NIST ThermoML archive (doi:10.1016/j.fluid.2011.11.005)

Assay: excess molar enthalpy (molar enthalpy of mixing); xn = mol fraction of the nth substance listed
Conditions: 101 kPa, Liquid, Flow calorimetry

CC(C)CC(C)(C)C [2,2,4-trimethylpentane] + CCCCO
313.15 K
Conditions | excess molar enthalpy [kcal/mol]
x1 = 0.0502 | 0.0251
x1 = 0.1001 | 0.0487
x1 = 0.1505 | 0.072
x1 = 0.2003 | 0.0939
x1 = 0.2505 | 0.115
x1 = 0.3001 | 0.134
x1 = 0.3504 | 0.152
x1 = 0.4001 | 0.167
x1 = 0.4499 | 0.181
x1 = 0.5008 | 0.192
x1 = 0.5501 | 0.2
x1 = 0.5999 | 0.205
x1 = 0.6498 | 0.207
x1 = 0.7 | 0.206
x1 = 0.75 | 0.201
x1 = 0.7996 | 0.193
x1 = 0.8502 | 0.179
x1 = 0.9001 | 0.159
x1 = 0.9506 | 0.125

CCCCO [butan-1-ol] + Cc1ccccc1
excess molar enthalpy [kcal/mol]
Conditions | 298.15 K | 313.15 K
x2 = 0.0504 | 0.0245 | 0.0341
x2 = 0.0998 | 0.0498 | –
x2 = 0.0999 | – | 0.0685
x2 = 0.1501 | 0.0753 | 0.102
x2 = 0.2011 | 0.101 | 0.136
x2 = 0.251 | 0.125 | –
x2 = 0.2512 | – | 0.166
x2 = 0.2999 | 0.148 | –
x2 = 0.3 | – | 0.195
x2 = 0.3495 | 0.169 | –
x2 = 0.3496 | – | 0.221
x2 = 0.3998 | 0.189 | –
x2 = 0.4 | – | 0.243
x2 = 0.4509 | 0.207 | –
x2 = 0.4511 | – | 0.264
x2 = 0.5009 | 0.221 | –
x2 = 0.501 | – | 0.279
x2 = 0.5495 | 0.231 | –
x2 = 0.5496 | – | 0.291
x2 = 0.6009 | 0.239 | –
x2 = 0.601 | – | 0.299
x2 = 0.6509 | 0.242 | –
x2 = 0.6511 | – | 0.302
x2 = 0.6996 | 0.24 | –
x2 = 0.6998 | – | 0.298
x2 = 0.7512 | 0.234 | –
x2 = 0.7513 | – | 0.29
x2 = 0.7992 | 0.222 | 0.274
x2 = 0.85 | 0.203 | 0.249
x2 = 0.8993 | 0.174 | 0.21
x2 = 0.9493 | 0.124 | 0.143

C1CCCCC1 [cyclohexane] + CCCCO
313.15 K
Conditions | excess molar enthalpy [kcal/mol]
x1 = 0.0505 | 0.0234
x1 = 0.1001 | 0.0459
x1 = 0.1505 | 0.0679
x1 = 0.2 | 0.0885
x1 = 0.2505 | 0.108
x1 = 0.2999 | 0.126
x1 = 0.3501 | 0.143
x1 = 0.4003 | 0.158
x1 = 0.4504 | 0.171
x1 = 0.5003 | 0.182
x1 = 0.55 | 0.19
x1 = 0.5995 | 0.195
x1 = 0.6499 | 0.197
x1 = 0.7 | 0.194
x1 = 0.7499 | 0.188
x1 = 0.7995 | 0.178
x1 = 0.8499 | 0.163
x1 = 0.8999 | 0.142
x1 = 0.9496 | 0.109

C=CCCCC [hex-1-ene] + CCCCO
excess molar enthalpy [kcal/mol]
Conditions | 298.15 K | 313.15 K
x1 = 0.05 | 0.0104 | 0.0188
x1 = 0.1001 | – | 0.0398
x1 = 0.1002 | 0.0234 | –
x1 = 0.1505 | – | 0.0602
x1 = 0.1506 | 0.0372 | –
x1 = 0.2002 | – | 0.0812
x1 = 0.2003 | 0.0527 | –
x1 = 0.2499 | – | 0.102
x1 = 0.25 | 0.0676 | –
x1 = 0.3004 | – | 0.121
x1 = 0.3005 | 0.0829 | –
x1 = 0.3498 | – | 0.141
x1 = 0.35 | 0.0967 | –
x1 = 0.4 | – | 0.158
x1 = 0.4001 | 0.11 | –
x1 = 0.4498 | – | 0.174
x1 = 0.4499 | 0.123 | –
x1 = 0.5001 | – | 0.188
x1 = 0.5003 | 0.134 | –
x1 = 0.5501 | – | 0.198
x1 = 0.5503 | 0.143 | –
x1 = 0.5995 | – | 0.206
x1 = 0.5996 | 0.149 | –
x1 = 0.6504 | – | 0.21
x1 = 0.6505 | 0.154 | –
x1 = 0.7005 | – | 0.211
x1 = 0.7006 | 0.155 | –
x1 = 0.7498 | – | 0.207
x1 = 0.7499 | 0.153 | –
x1 = 0.8005 | – | 0.2
x1 = 0.8006 | 0.147 | –
x1 = 0.8503 | 0.138 | 0.187
x1 = 0.9002 | 0.123 | 0.166
x1 = 0.9501 | 0.0969 | 0.127

C=CCCCC [hex-1-ene] + CCCCOCCCC
excess molar enthalpy [kcal/mol]
Conditions | 298.15 K | 313.15 K
x2 = 0.0503 | -0.000741 | -0.001
x2 = 0.1001 | -0.00139 | –
x2 = 0.15 | – | -0.00296
x2 = 0.1501 | -0.00258 | –
x2 = 0.2 | -0.0033 | -0.00382
x2 = 0.25 | -0.00402 | -0.00447
x2 = 0.2997 | – | -0.00497
x2 = 0.2998 | -0.00452 | –
x2 = 0.3502 | -0.00488 | –
x2 = 0.3503 | – | -0.0054
x2 = 0.3994 | -0.00519 | –
x2 = 0.3995 | – | -0.00566
x2 = 0.4502 | -0.00533 | –
x2 = 0.4503 | – | -0.00581
x2 = 0.4995 | -0.00543 | –
x2 = 0.4997 | – | -0.00586
x2 = 0.5494 | -0.00533 | –
x2 = 0.5495 | – | -0.00578
x2 = 0.5996 | -0.00511 | –
x2 = 0.5997 | – | -0.00557
x2 = 0.6491 | -0.0048 | –
x2 = 0.6493 | – | -0.00521
x2 = 0.7001 | -0.00437 | –
x2 = 0.7002 | – | -0.00468
x2 = 0.7491 | -0.00382 | –
x2 = 0.7492 | – | -0.00425
x2 = 0.7995 | -0.00296 | –
x2 = 0.7996 | – | -0.00361
x2 = 0.8501 | -0.00232 | -0.00284
x2 = 0.8996 | -0.00155 | -0.00203
x2 = 0.9504 | -0.000717 | -0.00108

CC1CCCCC1 [methylcyclohexane] + CCCCO
excess molar enthalpy [kcal/mol]
Conditions | 298.15 K | 313.15 K
x1 = 0.0498 | 0.0151 | 0.0212
x1 = 0.1 | 0.0301 | 0.0424
x1 = 0.1505 | 0.0449 | 0.0629
x1 = 0.2005 | 0.0588 | 0.0826
x1 = 0.2506 | 0.0725 | –
x1 = 0.2507 | – | 0.101
x1 = 0.3 | 0.0852 | 0.119
x1 = 0.3502 | 0.0974 | 0.135
x1 = 0.4002 | 0.109 | 0.15
x1 = 0.45 | – | 0.163
x1 = 0.4501 | 0.119 | –
x1 = 0.5006 | – | 0.174
x1 = 0.5007 | 0.127 | –
x1 = 0.5497 | 0.134 | 0.182
x1 = 0.6004 | 0.138 | 0.188
x1 = 0.6505 | 0.14 | 0.19
x1 = 0.6999 | 0.14 | –
x1 = 0.7 | – | 0.189
x1 = 0.7498 | 0.136 | 0.184
x1 = 0.7999 | 0.129 | –
x1 = 0.8 | – | 0.176
x1 = 0.8504 | 0.118 | 0.162
x1 = 0.8997 | 0.104 | 0.144
x1 = 0.9505 | 0.0814 | 0.112

CC1CCCCC1 [methylcyclohexane] + CCCCOCCCC
excess molar enthalpy [kcal/mol]
Conditions | 298.15 K | 313.15 K
x2 = 0.0497 | 0.0055 | 0.00497
x2 = 0.1003 | 0.0103 | 0.00908
x2 = 0.1501 | 0.0137 | 0.0126
x2 = 0.1997 | 0.0165 | –
x2 = 0.1998 | – | 0.0153
x2 = 0.2501 | 0.0189 | 0.0175
x2 = 0.3002 | 0.0207 | 0.0193
x2 = 0.3499 | 0.0218 | –
x2 = 0.35 | – | 0.0203
x2 = 0.3993 | 0.0225 | –
x2 = 0.3994 | – | 0.0211
x2 = 0.45 | 0.0228 | –
x2 = 0.4501 | – | 0.0215
x2 = 0.4993 | 0.0226 | 0.0213
x2 = 0.5499 | 0.022 | –
x2 = 0.55 | – | 0.0207
x2 = 0.5999 | 0.021 | –
x2 = 0.6 | – | 0.0197
x2 = 0.6491 | 0.0196 | –
x2 = 0.6492 | – | 0.0184
x2 = 0.6997 | 0.0177 | 0.0168
x2 = 0.7493 | 0.0156 | 0.0147
x2 = 0.8002 | 0.0131 | 0.0123
x2 = 0.8501 | 0.0103 | 0.00966
x2 = 0.9001 | 0.00707 | 0.00674
x2 = 0.95 | 0.00356 | –
x2 = 0.9501 | – | 0.00339
